15 molecules from patent US8765809B2, “Ester derivative and use thereof” (Ajinomoto Co., Inc., priority 2006, dated 2014) can be followed below.

In series [1] the test system is auricle of hairless mouse. Description: Measurement of external blood circulation enhancing action: vasodilatory effect (red spots) after application to the ear. Type of series: in vivo, hairless mouse (HR-1, female). Also on record: key to Vasodilatory effect for hairless mouse (red spots) / Vasodilatory effect on hairless mouse (red spots): O: clear red spots is confirmed; Δ: weak red spots is confirmed; x: no development of red spots. The following applies: for blood circulation enhancing effect (note, words) / red spots disappeared in / weak red spots were observed even after lapse of: application of 5 wt % in liquid paraffin; for vasodilatory / blood circulation enhancing effect, summary in words: summary of Tables 2 to 4; for Vasodilatory effect on hairless mouse (red spots) / weak red spots were observed at, time after application / red spots were observed at, time after application / red spots at 1 hr after application: 5 wt % (ethanol); for red spots at 1 hr after application: 1 hr later. The source says: The compound of each Example, capsinoid derivative and capsaicin were compared for vasodilatory effect using auricle of hairless mouse. A sample was applied to the right ear of hairless mouse (HR-1, female), and a control was applied to the left ear. […]

Series [2] can be described thus: Stability of compound: recovery rate (isolation yield) after contact with silica gel (PTLC). The format is physicochemical. The following applies: for recovery at 30 min: PTLC, silica gel stirred with ethyl acetate 30 min, read-out: isolation yield (recovery rate) after PTLC, taken as stability upon contact with silica gel; for stability upon contact with silica gel: isolation and purification by PTLC. Here is the method:
As mentioned above, the reaction yields of the compounds of respective Examples were determined by applying the products obtained by a condensation reaction to PTLC and stirring the silica gel containing the object compound with ethyl acetate for 30 min, followed by filtration and concentration under reduced pressure. Since the condensation reaction proceeds at a conversion rate of not less than 90% for all compounds, the recovery rate (yield) of each compound is considered to reflect stability upon contact of the compound with the silica gel.
Using vanillyl alcohol (1.70 g, 11.0 mmol) instead of homovanillyl alcohol, and n-decanoic acid (1.72 g, 10 mmol) instead of 8-methylnonanoic acid in Example 1, similar reaction was performed. The residue was purified by PTLC to find that the yield of the obtained vanillyl decanoate was 1.33 g (4.31 mmol, 43.1%), and vanillyl decanoate was decomposed (i.e., unstabilized) by the contact with silica gel.

Series [3] can be described thus: Solubility of sample in liquid paraffin (note to Table 2). Type of series: physicochemical. The following applies: 5 wt % in liquid paraffin.
Where [4] appears, read: 5 wt % (liquid paraffin), first column of Table 2.
[5] abbreviates: 5 wt % (liquid paraffin) as printed, second column of Table 2.

With `COc1cc(CCOC(=O)CCCCCCC(C)C)ccc1O` [compound I, homovanillyl 8-methylnonanoate], the “Vasodilatory effect for hairless mouse (red spots)” value in series [1] (setting [4]) is listed as “Δ”. Further, in series [1], the “blood circulation enhancing effect (note, words)” value is “effect was weak and”; the “red spots disappeared in” value was “disappeared in 1 hr”; the “vasodilatory / blood circulation enhancing effect, summary in words” value was “weak blood circulation enhancing effect”. In series [2], the recovery at 30 min is 93.2% and the “stability upon contact with silica gel” value is “far stabler than vanillyl decanoate”.
Take `COc1cc(CCOC(=O)CCCCCC(C)C)ccc1O` [compound I-1, homovanillyl 7-methyloctanoate]: in series [3], the “solubility (note, words)” value was “sparingly soluble, thus red”. In addition, in series [1], the “Vasodilatory effect on hairless mouse (red spots)” value is reported as “Δ”; the “weak red spots were observed at, time after application” value (“weak red spots were observed at, time” for short) is “Weak red spots were observed at 20 min”; the “vasodilatory / blood circulation enhancing effect, summary in words” value was “weak blood circulation enhancing effect”. In addition, in series [1] (setting [4]), the “Vasodilatory effect for hairless mouse (red spots)” value was “x”.
`COc1cc(CCOC(=O)CCCCC(C)C)ccc1O` [compound I-2, homovanillyl 6-methylheptanoate]: the “solubility (note, words)” value in series [3] is “sparingly soluble, thus red”. Besides, in series [1], the “Vasodilatory effect on hairless mouse (red spots)” value was “Δ”; the “weak red spots were observed at, time” value was “Weak red spots were observed at 20 min”; the “vasodilatory / blood circulation enhancing effect, summary in words” value is on record as “weak blood circulation enhancing effect”. For the same molecule, the “Vasodilatory effect for hairless mouse (red spots)” value in series [1] (setting [4]) was “x”.
Consider `COc1cc(CCOC(=O)CCCC(C)C)ccc1O` [compound I-3, homovanillyl 5-methylhexanoate], for which, in series [3], the “solubility (note, words)” value was “sparingly soluble, thus red”. Further, in series [1], the “Vasodilatory effect on hairless mouse (red spots)” value is “Δ”; the “weak red spots were observed at, time” value was “Weak red spots were observed at 20 min”; the “vasodilatory / blood circulation enhancing effect, summary in words” value was “weak blood circulation enhancing effect”. Further, the “Vasodilatory effect for hairless mouse (red spots)” value in series [1] (setting [4]) was “x”.
For the molecule `COc1cc(CCC(=O)OCCCCCCC(C)C)ccc1O` [compound L-1, 7-methyloctyl 3-(4-hydroxy-3-methoxyphenyl)propionate], in series [1], the “Vasodilatory effect on hairless mouse (red spots)” value was “∘”; the “red spots were observed at, time after application” value is “Red spots were observed at 5 min”; the “red spots at 1 hr after application” value is “thin red spots remained. L-4 showed”; the “red spots disappeared in” value is listed as “spots disappeared in 1 hr”. In series [1], the “vasodilatory / blood circulation enhancing effect, summary in words” value is “potent vasodilatory effect”. Also, in series [1] (setting [5]), the “Vasodilatory effect for hairless mouse (red spots)” value is on record as “Δ”. In series [1] (setting [4]), the “Vasodilatory effect for hairless mouse (red spots)” value was “∘”.
Take `COc1cc(CCC(=O)OCCCCCC(C)C)ccc1O` [compound L-2, 6-methylheptyl 3-(4-hydroxy-3-methoxyphenyl)propionate]: in series [1], the “Vasodilatory effect on hairless mouse (red spots)” value was “∘”; the “red spots were observed at, time after application” value is recorded as “Red spots were observed at 5 min”; the “red spots at 1 hr after application” value is reported as “thin red spots remained. L-4 showed”; the “red spots disappeared in” value is “spots disappeared in 1 hr”. The “vasodilatory / blood circulation enhancing effect, summary in words” value in series [1] was “potent vasodilatory effect”. Further, the “Vasodilatory effect for hairless mouse (red spots)” value in series [1] (setting [5]) was “Δ”. Also, the “Vasodilatory effect for hairless mouse (red spots)” value in series [1] (setting [4]) was “∘”.
Regarding `COc1cc(CCC(=O)OCCCCC(C)C)ccc1O` [compound L-3, 5-methylhexyl 3-(4-hydroxy-3-methoxyphenyl)propionate], in series [1], the “Vasodilatory effect on hairless mouse (red spots)” value is “∘”; the “red spots were observed at, time after application” value was “Red spots were observed at 5 min”; the “red spots at 1 hr after application” value was “thin red spots remained. L-4 showed”; the “red spots disappeared in” value is on record as “spots disappeared in 1 hr”. Moreover, in series [1], the “vasodilatory / blood circulation enhancing effect, summary in words” value is “potent vasodilatory effect”. For the same molecule, in series [1] (setting [5]), the “Vasodilatory effect for hairless mouse (red spots)” value is given as “Δ”. Moreover, in series [1] (setting [4]), the “Vasodilatory effect for hairless mouse (red spots)” value is on record as “∘”.
For `CC[C@H](C)CCCCCOC(=O)CCc1ccc(O)c(OC)c1` [compound L-4, (S)-(+)-6-methyloctyl 3-(4-hydroxy-3-methoxyphenyl)propionate], in series [1], the “Vasodilatory effect on hairless mouse (red spots)” value is reported as “∘”; the “red spots were observed at, time after application” value is on record as “Red spots were observed at 5 min”; the “red spots at 1 hr after application” value is “strong red spots after 1 hr”; the “weak red spots were observed even after lapse of” value (from here on “weak red spots were observed even”) is “lapse of 1 hr”. Also, the “vasodilatory / blood circulation enhancing effect, summary in words” value in series [1] was “potent vasodilatory effect”. For the same molecule, the “Vasodilatory effect for hairless mouse (red spots)” value in series [1] (setting [5]) is “∘”. In addition, the “Vasodilatory effect for hairless mouse (red spots)” value in series [1] (setting [4]) is on record as “∘”.
For `COc1cc(/C=C/C(=O)OCCCCCCCC(C)C)ccc1O` [compound Q-1, 8-methylnonyl ferulate], in series [1], the “Vasodilatory effect on hairless mouse (red spots)” value is on record as “x” and the “blood circulation enhancing effect (note, words)” value is “Application of 5 wt %: no blood”. The “Vasodilatory effect for hairless mouse (red spots)” value in series [1] (setting [4]) is given as “x”.
Regarding `COc1cc(/C=C/C(=O)OCCCCCCC(C)C)ccc1O` [compound Q-2, 7-methyloctyl ferulate], in series [1], the “Vasodilatory effect on hairless mouse (red spots)” value was “x” and the “blood circulation enhancing effect (note, words)” value is on record as “Application of 5 wt %: no blood”. In series [1] (setting [4]), the “Vasodilatory effect for hairless mouse (red spots)” value is reported as “x”.
Turning to `COc1cc(/C=C/C(=O)OCCCCCC(C)C)ccc1O` [compound Q-3, 6-methylheptyl ferulate], in series [1], the “Vasodilatory effect on hairless mouse (red spots)” value is reported as “x” and the “blood circulation enhancing effect (note, words)” value is listed as “Application of 5 wt %: no blood”. The “Vasodilatory effect for hairless mouse (red spots)” value in series [1] (setting [4]) was “x”.
On to `COc1cc(COC(=O)CCCCCCC(C)C)ccc1O` [dihydrocapsiate, 4-hydroxy-3-methoxybenzyl 8-methylnonanoate, reference compound], for which the “Vasodilatory effect for hairless mouse (red spots)” value in series [1] (setting [5]) is on record as “Δ”; in series [1] (setting [4]), “∘”. Also, the “weak red spots were observed even” value in series [1] is “lapse of 90 min”.
`COc1cc(COC(=O)CCCCCC(C)C)ccc1O` [nordihydrocapsiate, 4-hydroxy-3-methoxybenzyl 7-methyl-octanoate, reference compound]: the “Vasodilatory effect for hairless mouse (red spots)” value in series [1] (setting [5]) is recorded as “Δ”; in series [1] (setting [4]), “∘”. Also, in series [1], the “weak red spots were observed even” value is listed as “lapse of 90 min”.
`COc1cc(CO)ccc1O` [vanillyl alcohol, reference compound]: in series [1], the “Vasodilatory effect on hairless mouse (red spots)” value is on record as “x” and the “blood circulation enhancing effect (note, words)” value was “Application of 5 wt %: no blood”. For the same molecule, in series [1] (setting [4]), the “Vasodilatory effect for hairless mouse (red spots)” value is “x”.
For `CCCCCCCCCC(=O)OCc1ccc(O)c(OC)c1` [vanillyl decanoate, reference compound], in series [2], the recovery at 30 min was 43.1% and the “stability upon contact with silica gel” value was “decomposed”.
